Laboratory results from publication PMC9024805, “Non-Effective Improvement of Absorption for Some Nanoparticle Formulations Explained by Permeability under Non-Sink Conditions” (Pharmaceutics, 2022).

Columns and labels:
[1] = parameters: method as in PMID 17694546; conditions: cited from earlier work
[2] = Permeability under sink conditions (previous study / calculated for Figure 11); type: in vitro ADME; conditions: not told, given in Figure 11
Description: To assess the impact of permeability under non-sink conditions, we compared it with that under sink conditions.

[3] = parameters: method as in PMID 33801447; conditions: previous study ref 25; cited from earlier work
[4] = Solubility from concentrations in the donor chambers; conditions: pH 6.5, 37 °C
Description: At 0, 30, 60, 120, 240 and 360 min, 100 μL of the acceptor chamber solution was withdrawn and diluted 2-fold. […] To measure the exact concentration in the donor chamber containing the nanosuspensions, the filtration method was applied according to a previous report [32]. Then, 100 μL of the filtered solution was diluted 2-fold. The sample concentration was determined by ultra-high-performance liquid chromatography (UHPLC).

Compound | Papp using PAMPA relative to that of griseofulvin [1] | Papp [2] [×10⁻⁶ cm/s] | Papp under sink conditions [3] [×10⁻⁶ cm/s] | Effect of nanonization / particle size on solubility [4]
CC(=O)[C@H]1CC[C@H]2[C@@H]3CCC4=CC(=O)CC[C@]4(C)[C@H]3CC[C@]12C [progesterone] | 2–3 times | – | – | –
COC1=CC(=O)C[C@@H](C)[C@]12Oc1c(Cl)c(OC)cc(OC)c1C2=O [griseofulvin] | – | 250 | 247 | not improved by nanonization
